Data published in patent US20260015337A1 (Trawsfynydd Therapeutics, Inc., priority 2022, published 2026).

Molecular target: 3CL Protease (Severe acute respiratory syndrome coronavirus 2, UniProt P0DTD1)
Experiment: 3CL Protease enzymatic activity assay (BPS Bioscience Assay Kit #78043-1, fluorescence)
Format: biochemical, SARS-CoV-2
Settings: Table A; 30 min preincubation, 40 μM substrate, 4 hours at room temperature; read-out: IC50, nM (3CL Protease enzymatic activity)
Description: For determination of 3CL Protease enzymatic activity was used Assay Kit of BPS Bioscience, San Diego, CA (Catalog #78043-1).
All samples and controls should be tested in duplicate. • 1) Just before use, dilute 0.5 M DTT 500 times into the 3CL Protease Assay Buffer to obtain a DTT concentration of 1 mM. For example, add 10 μl of 0.5 M DTT to 5 ml of assay buffer. Prepare enough DTT-containing buffer as required for the assay. Store the remaining assay buffer at −20° C. • 2) Thaw the 3CL Protease on ice. Briefly spin the tube containing the enzyme to recover the full content of the tube. Note: 3CL Protease enzyme is sensitive to freeze/thaw cycles. […] Note: The exact concentration and volume of enzyme is lot-specific and will be indicated on the tube. Calculate required dilution from the information in the tube. It may be desirable to dilute the enzyme serially to avoid using large amounts of protease assay buffer for the dilution. • 4) Add 30 μl of diluted 3CL Protease to the wells designated as “Positive Control,” “Inhibitor Control,” and “Test Inhibitor.” Add 30 μl of Assay Buffer (containing 1 mM DTT) to the “Blank” wells. • 5) Dilute the 50 μg GC376 in 200 μl of Assay Buffer to obtain a 500 μM solution. Add 10 μl of GC376 (500 μM) to the wells labeled “Inhibitor Control”. Aliquot and store the remaining solution at −80° C. • 6) Prepare the Test Inhibitor. The final concentration of DMSO in the assay should not exceed 1%. If the Test Inhibitor is dissolved in DMSO, make a 100-fold higher concentration of the compound than the highest desired concentration. Then make a 20-fold dilution in 1× Assay Buffer (containing DTT). At this step the compound concentration is 5-fold higher than the final concentration. If the test inhibitor is dissolved in water, make a 5-fold higher concentration of the test compound than the final desired concentration in the Assay buffer (containing DTT). Add 10 μl of Test Inhibitor to each well designated “Test Inhibitor”. • 7) Diluent Solution (no inhibitor): add 10 μl of assay buffer (if the test compound is water soluble and was diluted in assay buffer) or 10 μl of 5% DMSO diluted in assay buffer (if DMSO was used to dissolve the test inhibitor) to “Blank” and “Positive Control” wells.
• 8) Preincubate for 30 min at room temperature with slow shaking. • 9) Dilute the 25 μl of 3CL Protease substrate (10 mM) in 1.25 ml of the Assay Buffer containing DTT, to make a […] solution. The final concentration of the 3CL Protease substrate in a 50 μl reaction is 40 μM. • 10) Start the reaction by adding 10 μl of the substrate solution to all the wells. Seal the plate with the plate sealer and incubate for 4 hours at room temperature with slow shaking. • 11) Measure the fluorescence intensity in a microtiter plate-reader fluorometer (Tecan Spark Cyto) capable of excitation at a wavelength 360 nm and detection of emission at a wavelength 460 nm. The fluorescence intensity can also be measured kinetically. The “Blank” value is subtracted from all other values. • The % inhibition was then used to calculate the IC50 values.

| SMILES | IC50 [nM] |
| --- | --- |
| Cc1ccc2[nH]c(=O)c(C[C@@H](C#N)NC(=O)C3C[C@H]4OCC[C@H]4N3C(=O)[C@@H](NC(=O)C(F)(F)F)C(C)(C)C)cc2c1 (stereo partly drawn) [Compound 198, (3aR,6aR)—N—((S)-1-Cyano-2-(6-methyl-2-oxo-1,2-dihydroquinolin-3-yl)ethyl)-4-((S)-3,3-dimethyl-2-(2,2,2-trifluoroacetamido)butanoyl)hexahydro-2H-furo[3,2-b]pyrrole-5-carboxamide] | ≥ 1000 |
| COc1cc2[nH]c(=O)c(C[C@@H](C#N)NC(=O)[C@@H]3[C@@H]4[C@H](CN3C(=O)[C@@H](NC(=O)C(F)(F)F)C(C)(C)C)C4(C)C)cc2cc1C [Compound 175, (1R,2S,5S)—N-[(1S)-1-Cyano-2-(7-methoxy-6-methyl-2-oxo-1H-quinolin-3-yl)ethyl]-3-[(2S)-3,3-dimethyl-2-[(2,2,2-trifluoroacetyl)amino]butanoyl]-6,6-dimethyl-3-azabicyclo[3.1.0]hexane-2-carboxamide] | 50 to 100 |
| Cc1ccc2[nH]c(=O)c(CC(C#N)N(C)C(=O)[C@@H]3[C@H]4[C@H](CN3C(=O)[C@@H](NC(=O)C(F)(F)F)C(C)(C)C)C4(C)C)cc2c1 (stereo partly drawn) [Compound 205, (1S,2S,5S)-N-[1-cyano-2-(6-methyl-2-oxo-1H-quinolin-3-yl)ethyl]-3-[(2S)-3,3-dimethyl-2-[(2,2,2-trifluoroacetyl)amino]butanoyl]-N,6,6-trimethyl-3-azabicyclo[3.1.0]hexane-2-carboxamide] | ≥ 1000 |
| Cc1ccc2[nH]c(=O)c(C[C@H](C#N)NC(=O)[C@@H]3C4[C@H](CN3C(=O)[C@@H](NS(C)(=O)=O)C(C)(C)C)C4(C)C)cc2c1 (stereo in doubt) [Compound 148, (1R,2S,5S)—N-[(1R)-1-cyano-2-(6-methyl-2-oxo-1H-quinolin-3-yl)ethyl]-3-[(2S)-2-(methanesulfonamido)-3,3-dimethyl-butanoyl]-6,6-dimethyl-3-azabicyclo[3.1.0]hexane-2-carboxamide] | ≥ 1000 |
| Cc1ccc2[nH]c(=O)c(C[C@H](C#N)NC(=O)C3C4C(CN3C(=O)[C@H](NS(=O)(=O)C3CC3)C(C)(C)C)C4(C)C)cc2c1 (stereo in doubt) [Compound 203, (1S)—N-[(1R)-1-Cyano-2-(6-methyl-2-oxo-1H-quinolin-3-yl)ethyl]-3-[(2R)-2-(cyclopropylsulfonylamino)-3,3-dimethyl-butanoyl]-6,6-dimethyl-3-azabicyclo[3.1.0]hexane-2-carboxamide] | 50 to 100 |
| Cc1ccc2[nH]c(=O)c(C[C@@H](C#N)NC(=O)[C@@H]3[C@@H]4[C@H](CN3C(=O)[C@@H](NC(=O)C(F)(F)F)C(C)(C)C)C4(C)C)c(C)c2c1 [Compound 178, (1R,2S,5S)—N—((S)-1-Cyano-2-(4,6-dimethyl-2-oxo-1,2-dihydroquinolin-3-yl)-ethyl)-3-((S)-3,3-dimethyl-2-(2,2,2-trifluoroacetamido)butanoyl)-6,6-dimethyl-3-azabicyclo[3.1.0]hexane-2-carboxamide] | 100 to 250 |
| Cc1ccc2[nH]c(=O)c(C[C@@H](C#N)NC(=O)[C@@H]3C4[C@H](CN3C(=O)[C@@H](Nc3ccnc(C(F)(F)F)n3)C(C)(C)C)C4(C)C)cc2c1 (stereo in doubt) [Compound 161, (1R,2S,5S)—N—((S)-1-Cyano-2-(6-methyl-2-oxo-1,2-dihydroquinolin-3-yl)ethyl)-3-((S)-3,3-dimethyl-2-((2-(trifluoromethyl)pyrimidin-4-yl)amino)butanoyl)-6,6-dimethyl-3-azabicyclo[3.1.0]hexane-2-carboxamide] | ≥ 1000 |
| CC(C)(C)[C@H](NC(=O)C(F)(F)F)C(=O)N1C[C@H]2[C@@H]([C@H]1C(=O)NC(C#N)Cc1cc3c([nH]c1=O)CCCC3)C2(C)C (mixture of isomers) [Compound 121, (1R,2S,5S)—N-(1-Cyano-2-(2-oxo-1,2,5,6,7,8-hexahydroquinolin-3-yl)ethyl)-3-((S)-3,3-dimethyl-2-(2,2,2-trifluoroacetamido)butanoyl)-6,6-dimethyl-3-azabicyclo[3.1.0]hexane-2-carboxamide] | 250 to 500 |
| Cc1ccc2[nH]c(=O)c(C[C@@H](C#N)NC(=O)[C@@H]3[C@@H]4[C@H](CN3C(=O)C(C)c3cc(C(F)(F)F)n[nH]3)C4(C)C)cc2c1 (stereo partly shown) [Compound 194] | ≥ 1000 |
| Cc1ccc2[nH]c(=O)c(C[C@@H](C#N)NC(=O)[C@@H]3C4[C@H](CN3C(=O)[C@@H](Nc3ncc(C)s3)C(C)(C)C)C4(C)C)cc2c1 (stereo in doubt) [Compound 158, (1R,2S,5S)—N—((S)-1-Cyano-2-(6-methyl-2-oxo-1,2-dihydroquinolin-3-yl)ethyl)-3-((S)-3,3-dimethyl-2-((5-methylthiazol-2-yl)amino)butanoyl)-6,6-dimethyl-3-azabicyclo[3.1.0]hexane-2-carboxamide] | 50 to 100 |
| Cc1ccc2c(c1)CC(CC(C#N)NC(=O)[C@@H]1[C@@H]3[C@H](CN1C(=O)[C@@H](NC(=O)C(F)(F)F)C(C)(C)C)C3(C)C)C(=O)N2 (stereo partly drawn) [Compound 199, (1R,2S,5S)—N-[1-Cyano-2-(6-methyl-2-oxo-3,4-dihydro-1H-quinolin-3-yl)ethyl]-3-[(2S)-3,3-dimethyl-2-[(2,2,2-trifluoroacetyl)amino]butanoyl]-6,6-dimethyl-3-azabicyclo[3.1.0]hexane-2-carboxamide] | < 50 |
| Cc1ccc2[nH]c(=O)c(C[C@@H](C#N)NC(=O)[C@@H]3[C@@H]4[C@H](CN3C(=O)Cc3cc(C(F)(F)F)n[nH]3)C4(C)C)cc2c1 [Compound 191, (1R,2S,5S)—N—((S)-1-Cyano-2-(6-methyl-2-oxo-1,2-dihydroquinolin-3-yl)ethyl)-6,6-dimethyl-3-(2-(3-(trifluoromethyl)-1H-pyrazol-5-yl)acetyl)-3-azabicyclo[3.1.0]hexane-2-carboxamide] | ≥ 1000 |
| Cc1ccc2[nH]c(=O)c(C[C@@H](C#N)NC(=O)[C@@H]3C4[C@H](CN3C(=O)[C@@H](Nc3nc(C)cs3)C(C)(C)C)C4(C)C)cc2c1 (stereo in doubt) [Compound 157, (1R,2S,5S)—N—((S)-1-Cyano-2-(6-methyl-2-oxo-1,2-dihydroquinolin-3-yl)ethyl)-3-((S)-3,3-dimethyl-2-((4-methylthiazol-2-yl)amino)butanoyl)-6,6-dimethyl-3-azabicyclo[3.1.0]hexane-2-carboxamide] | 250 to 500 |
| Cc1ccc2[nH]c(=O)c(CC(C#N)NC(=O)[C@H](Cc3cc(F)c(F)cc3F)NC(=O)[C@@H](NS(=O)(=O)CC(F)(F)F)C(C)(C)C)cc2c1 (stereo partly drawn) [Compound 166, (2S)—N-((2S)-1-((1-Cyano-2-(6-methyl-2-oxo-1,2-dihydroquinolin-3-yl)ethyl)amino)-1-oxo-3-(2,4,5-trifluorophenyl)propan-2-yl)-3,3-dimethyl-2-((2,2,2-trifluoroethyl)sulfonamido)butanamide] | 500 to 1000 |
| CN1c2ccccc2NC(=O)C1CC(C#N)NC(=O)[C@@H]1[C@@H]2[C@H](CN1C(=O)[C@@H](NC(=O)C(F)(F)F)C(C)(C)C)C2(C)C (stereo partly drawn) [Compound 187, (1R,2S,5S)—N-[1-Cyano-2-(1-methyl-3-oxo-2,4-dihydroquinoxalin-2-yl)ethyl]-3-[(2S)-3,3-dimethyl-2-[(2,2,2-trifluoroacetyl)amino]butanoyl]-6,6-dimethyl-3-azabicyclo[3.1.0]hexane-2-carboxamide] | ≥ 1000 |
| Cc1ccc2[nH]c(=O)c(C[C@@H](C#N)NC(=O)[C@@H]3[C@@H]4[C@H](CN3C(=O)[C@@H](NS(=O)(=O)CC(F)(F)F)C(C)(C)C)C4(C)C)cc2c1 [Compound 195, (1R,2S,5S)—N—((S)-1-Cyano-2-(6-methyl-2-oxo-1,2-dihydroquinolin-3-yl)ethyl)-3-((S)-3,3-dimethyl-2-((2,2,2-trifluoroethyl)sulfonamido)butanoyl)-6,6-dimethyl-3-azabicyclo[3.1.0]hexane-2-carboxamide] | < 50 |
